Test results: ChEMBL document CHEMBL3885881, “DrugMatrix”

Species: Rattus norvegicus
Test: DrugMatrix - Regimen: Daily Repeat
Assay type: toxicity, organism-based, Sprague-Dawley
Parameters: regimen Daily Repeat, gender Male, age 6-8 weeks
Details: in vivo, po, route oral GAVAGE, vehicle .5 % CMC; for ABSOLUTE BASOPHIL / ABSOLUTE EOSINOPHIL / ABSOLUTE LYMPHOCYTE / ABSOLUTE MONOCYTE / ABSOLUTE SEGMENTED NEUTROPHIL / BASOPHIL / EOSINOPHIL / ERYTHROCYTE COUNT / HEMATOCRIT / HEMOGLOBIN / LEUKOCYTE COUNT / LYMPHOCYTE / MEAN CORPUSCULAR HEMOGLOBIN / MEAN CORPUSCULAR HEMOGLOBIN CONCENTRATION / MEAN CORPUSCULAR VOLUME / MONOCYTE / NEUTROPHIL / NUCLEATED RED BLOOD CELLS / PLATELET COUNT: tissue Blood; for ALANINE AMINOTRANSFERASE / ALBUMIN / ALKALINE PHOSPHATASE / ASPARTATE AMINOTRANSFERASE / BLOOD UREA NITROGEN / CARBON DIOXIDE / CHLORIDE / CHOLESTEROL / CREATINE PHOSPHOKINASE / CREATININE / GLUCOSE / LACTATE DEHYDROGENASE / LIPASE / PHOSPHORUS / POTASSIUM / SODIUM / TOTAL BILIRUBIN / TOTAL PROTEIN / URIC ACID: tissue Plasma
[1] = 200 mg/kg, 72 h, dose level Low, time 3 day
[2] = 200 mg/kg, 120 h, dose level Low, time 5 day
[3] = 1000 mg/kg, 72 h, dose level High, time 3 day
[4] = 1000 mg/kg, 120 h, dose level High, time 5 day

SMILES: c1ccc(Nc2ccc(Nc3ccccc3)cc2)cc1
- ABSOLUTE BASOPHIL [1]: 0 CELLS/uL
- ABSOLUTE EOSINOPHIL [1]: 237 CELLS/uL
- ABSOLUTE LYMPHOCYTE [1]: 13213.33 CELLS/uL
- ABSOLUTE MONOCYTE [1]: 291.33 CELLS/uL
- ABSOLUTE SEGMENTED NEUTROPHIL [1]: 1225 CELLS/uL
- BASOPHIL [1]: 0%
- EOSINOPHIL [1]: 1.67%
- ERYTHROCYTE COUNT [1]: 5.4 x10E6/uL
- HEMATOCRIT [1]: 33.57%
- HEMOGLOBIN [1]: 12.87 G/DL
- LEUKOCYTE COUNT [1]: 14.97 x10E3/uL
- LYMPHOCYTE [1]: 88%
- MEAN CORPUSCULAR HEMOGLOBIN [1]: 23.83 pg
- MEAN CORPUSCULAR HEMOGLOBIN CONCENTRATION [1]: 38.33 G/DL
- MEAN CORPUSCULAR VOLUME [1]: 62.2 fL
- MONOCYTE [1]: 2%
- NEUTROPHIL [1]: 8.33%
- NUCLEATED RED BLOOD CELLS [1]: 0 /100WBC
- PLATELET COUNT [1]: 1471 x10E3/uL
- ALANINE AMINOTRANSFERASE [1]: 46.67 u/L
- ALBUMIN [1]: 4.2 G/DL
- ALKALINE PHOSPHATASE [1]: 353.67 u/L
- ASPARTATE AMINOTRANSFERASE [1]: 106.33 u/L
- BLOOD UREA NITROGEN [1]: 15 mg/dL
- CARBON DIOXIDE [1]: 22 mmol/L
- CHLORIDE [1]: 105.33 MEQ/L
- CHOLESTEROL [1]: 67 mg/dL
- CREATINE PHOSPHOKINASE [1]: 1002.33 u/L
- CREATININE [1]: 0.23 mg/dL
- GLUCOSE [1]: 178.33 mg/dL
- LACTATE DEHYDROGENASE [1]: 537.67 u/L
- LIPASE [1]: 9.33 u/L
- PHOSPHORUS [1]: 12.7 mg/dL
- POTASSIUM [1]: 6.26 MEQ/L
- SODIUM [1]: 143.9 MEQ/L
- TOTAL BILIRUBIN [1]: 0.23 mg/dL
- TOTAL PROTEIN [1]: 5.57 G/DL
- URIC ACID [1]: 1.87 mg/dL
- ABSOLUTE BASOPHIL [2]: 0 CELLS/uL
- ABSOLUTE EOSINOPHIL [2]: 45 CELLS/uL
- ABSOLUTE LYMPHOCYTE [2]: 13082 CELLS/uL
- ABSOLUTE MONOCYTE [2]: 237 CELLS/uL
- ABSOLUTE SEGMENTED NEUTROPHIL [2]: 736 CELLS/uL
- BASOPHIL [2]: 0%
- EOSINOPHIL [2]: 0.33%
- ERYTHROCYTE COUNT [2]: 5.63 x10E6/uL
- HEMATOCRIT [2]: 36.07%
- HEMOGLOBIN [2]: 13.67 G/DL
- LEUKOCYTE COUNT [2]: 14.1 x10E3/uL
- LYMPHOCYTE [2]: 92.67%
- MEAN CORPUSCULAR HEMOGLOBIN [2]: 24.23 pg
- MEAN CORPUSCULAR HEMOGLOBIN CONCENTRATION [2]: 37.93 G/DL
- MEAN CORPUSCULAR VOLUME [2]: 63.97 fL
- MONOCYTE [2]: 1.67%
- NEUTROPHIL [2]: 5.33%
- NUCLEATED RED BLOOD CELLS [2]: 0.33 /100WBC
- PLATELET COUNT [2]: 1272.33 x10E3/uL
- ALANINE AMINOTRANSFERASE [2]: 46 u/L
- ALBUMIN [2]: 4.23 G/DL
- ALKALINE PHOSPHATASE [2]: 349 u/L
- ASPARTATE AMINOTRANSFERASE [2]: 77.67 u/L
- BLOOD UREA NITROGEN [2]: 17 mg/dL
- CARBON DIOXIDE [2]: 28 mmol/L
- CHLORIDE [2]: 105.67 MEQ/L
- CHOLESTEROL [2]: 70.67 mg/dL
- CREATINE PHOSPHOKINASE [2]: 230.33 u/L
- CREATININE [2]: 0.24 mg/dL
- GLUCOSE [2]: 178 mg/dL
- LACTATE DEHYDROGENASE [2]: 121.33 u/L
- LIPASE [2]: 8.67 u/L
- PHOSPHORUS [2]: 12.4 mg/dL
- POTASSIUM [2]: 6.76 MEQ/L
- SODIUM [2]: 148.13 MEQ/L
- TOTAL BILIRUBIN [2]: 0.23 mg/dL
- TOTAL PROTEIN [2]: 5.83 G/DL
- URIC ACID [2]: 2 mg/dL
- ABSOLUTE BASOPHIL [3]: 0 CELLS/uL
- ABSOLUTE EOSINOPHIL [3]: 52.33 CELLS/uL
- ABSOLUTE LYMPHOCYTE [3]: 13944 CELLS/uL
- ABSOLUTE MONOCYTE [3]: 300.33 CELLS/uL
- ABSOLUTE SEGMENTED NEUTROPHIL [3]: 1236.67 CELLS/uL
- BASOPHIL [3]: 0%
- EOSINOPHIL [3]: 0.33%
- ERYTHROCYTE COUNT [3]: 5.47 x10E6/uL
- HEMATOCRIT [3]: 34.97%
- HEMOGLOBIN [3]: 13.1 G/DL
- LEUKOCYTE COUNT [3]: 15.53 x10E3/uL
- LYMPHOCYTE [3]: 89.67%
- MEAN CORPUSCULAR HEMOGLOBIN [3]: 23.97 pg
- MEAN CORPUSCULAR HEMOGLOBIN CONCENTRATION [3]: 37.47 G/DL
- MEAN CORPUSCULAR VOLUME [3]: 63.93 fL
- MONOCYTE [3]: 2%
- NEUTROPHIL [3]: 8%
- NUCLEATED RED BLOOD CELLS [3]: 0 /100WBC
- PLATELET COUNT [3]: 1345 x10E3/uL
- ALANINE AMINOTRANSFERASE [3]: 40 u/L
- ALBUMIN [3]: 4.3 G/DL
- ALKALINE PHOSPHATASE [3]: 405.33 u/L
- ASPARTATE AMINOTRANSFERASE [3]: 83 u/L
- BLOOD UREA NITROGEN [3]: 18.33 mg/dL
- CARBON DIOXIDE [3]: 26.33 mmol/L
- CHLORIDE [3]: 102.33 MEQ/L
- CHOLESTEROL [3]: 78.33 mg/dL
- CREATINE PHOSPHOKINASE [3]: 324.33 u/L
- CREATININE [3]: 0.21 mg/dL
- GLUCOSE [3]: 155.67 mg/dL
- LACTATE DEHYDROGENASE [3]: 398 u/L
- LIPASE [3]: 8.67 u/L
- PHOSPHORUS [3]: 12.6 mg/dL
- POTASSIUM [3]: 7.38 MEQ/L
- SODIUM [3]: 144.77 MEQ/L
- TOTAL BILIRUBIN [3]: 0.33 mg/dL
- TOTAL PROTEIN [3]: 5.8 G/DL
- URIC ACID [3]: 1.47 mg/dL
- ABSOLUTE BASOPHIL [4]: 0 CELLS/uL
- ABSOLUTE EOSINOPHIL [4]: 50 CELLS/uL
- ABSOLUTE LYMPHOCYTE [4]: 13072 CELLS/uL
- ABSOLUTE MONOCYTE [4]: 337.33 CELLS/uL
- ABSOLUTE SEGMENTED NEUTROPHIL [4]: 907.33 CELLS/uL
- BASOPHIL [4]: 0%
- EOSINOPHIL [4]: 0.33%
- ERYTHROCYTE COUNT [4]: 5.47 x10E6/uL
- HEMATOCRIT [4]: 35.47%
- HEMOGLOBIN [4]: 13.47 G/DL
- LEUKOCYTE COUNT [4]: 14.37 x10E3/uL
- LYMPHOCYTE [4]: 91%
- MEAN CORPUSCULAR HEMOGLOBIN [4]: 24.77 pg
- MEAN CORPUSCULAR HEMOGLOBIN CONCENTRATION [4]: 37.97 G/DL
- MEAN CORPUSCULAR VOLUME [4]: 65.07 fL
- MONOCYTE [4]: 2.33%
- NEUTROPHIL [4]: 6.33%
- NUCLEATED RED BLOOD CELLS [4]: 0 /100WBC
- PLATELET COUNT [4]: 1396.67 x10E3/uL
- ALANINE AMINOTRANSFERASE [4]: 42.33 u/L
- ALBUMIN [4]: 4.23 G/DL
- ALKALINE PHOSPHATASE [4]: 316.67 u/L
- ASPARTATE AMINOTRANSFERASE [4]: 67 u/L
- BLOOD UREA NITROGEN [4]: 16.33 mg/dL
- CARBON DIOXIDE [4]: 29 mmol/L
- CHLORIDE [4]: 105.67 MEQ/L
- CHOLESTEROL [4]: 69.33 mg/dL
- CREATINE PHOSPHOKINASE [4]: 202.33 u/L
- CREATININE [4]: 0.25 mg/dL
- GLUCOSE [4]: 159 mg/dL
- LACTATE DEHYDROGENASE [4]: 84.33 u/L
- LIPASE [4]: 9 u/L
- PHOSPHORUS [4]: 12.27 mg/dL
- POTASSIUM [4]: 6.19 MEQ/L
- SODIUM [4]: 146.97 MEQ/L
- TOTAL BILIRUBIN [4]: 0.33 mg/dL
- TOTAL PROTEIN [4]: 5.83 G/DL
- URIC ACID [4]: 1.73 mg/dL
